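Cells were grown in 96-well plates and exposed to each compound for 48 hours at five concentrations; endpoints were interpolated linearly between bracketing concentrations, or set to the highest concentration if not reached. Here, GI50 denotes the concentration required for 50% inhibition of growth.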 Calls of active or inactive are those of the source. Cut-off read from the data, not from the text of the source: active = GI50 up to about 1.1 µM and inactive = higher.
Assays:
Test in all cases: inhibition of tumour cell growth, NCI panel, 48 h
DU-145 = tested on: DU-145
SR = tested on: SR
SNB-75 = tested on: SNB-75
SW-620 = tested on: SW-620
OVCAR-5 = tested on: OVCAR-5
NCI-H522 = tested on: NCI-H522
IGROV-1 = tested on: IGROV-1
NCI/ADR-RES = tested on: NCI/ADR-RES
RXF 393 = tested on: RXF 393
HCC 2998 = tested on: HCC 2998
OVCAR-3 = tested on: OVCAR-3
ACHN = tested on: ACHN
CCRF-CEM = tested on: CCRF-CEM
HT-29 = tested on: HT-29
NCI-H460 = tested on: NCI-H460
U-251 = tested on: U-251
T47D = tested on: T47D
HOP-92 = tested on: HOP-92
SK-OV-3 = tested on: SK-OV-3
NCI-H226 = tested on: NCI-H226

Compound | GI50 (DU-145) | GI50 (SR) | GI50 (SNB-75) | GI50 (SW-620) | GI50 (OVCAR-5) | GI50 (NCI-H522) | GI50 (IGROV-1) | GI50 (NCI/ADR-RES) | GI50 (RXF 393) | GI50 (HCC 2998) | GI50 (OVCAR-3) | GI50 (ACHN) | GI50 (CCRF-CEM) | GI50 (HT-29) | GI50 (NCI-H460) | GI50 (U-251) | GI50 (T47D) | GI50 (HOP-92) | GI50 (SK-OV-3) | GI50 (NCI-H226)
CNc1nc(N)nc(Nc2ccc(I)cc2)c1N=O | > 100 µM (inactive) | > 100 µM (inactive) | > 100 µM (inactive) | > 100 µM (inactive) | > 100 µM (inactive) | 40 µM (inactive) | > 100 µM (inactive) | > 100 µM (inactive) | 57.4 µM (inactive) | > 100 µM (inactive) | 61 µM (inactive) | > 100 µM (inactive) | > 100 µM (inactive) | 24 µM (inactive) | > 100 µM (inactive) | – | – | – | – | –
COC1CC2CCC(C)[C@](O)(O2)C(=O)C(=O)N2CCCCC2C(=O)OC(C(C)CC2CCC(O)C(OC)C2)CC(=O)C(C)C=C(C)C(OC(=O)CN(C)C)C(OC)C(=O)C(C)CC(C)/C=C/C=C/C=C\1C (some centres undefined) | 7.38 µM (inactive) | < 0.01 µM (active) | < 0.01 µM (active) | – | 12.6 µM (inactive) | 3.94 µM (inactive) | – | – | < 0.01 µM (active) | – | 9.79 µM (inactive) | 0.0101 µM (active) | < 0.01 µM (active) | 3.81 µM (inactive) | 6.22 µM (inactive) | < 0.01 µM (active) | < 0.01 µM (active) | < 0.01 µM (active) | < 0.01 µM (active) | 10.3 µM (inactive)
C#CCN(N=O)C(=O)NCCCC(NC(C)=O)C(=O)NCc1ccccc1 (centres undefined) | – | 6.3 µM (inactive) | 96.8 µM (inactive) | 92.5 µM (inactive) | > 100 µM (inactive) | 29.9 µM (inactive) | > 100 µM (inactive) | – | > 100 µM (inactive) | > 100 µM (inactive) | > 100 µM (inactive) | 56.2 µM (inactive) | 11.3 µM (inactive) | > 100 µM (inactive) | 28.8 µM (inactive) | > 100 µM (inactive) | – | > 100 µM (inactive) | > 100 µM (inactive) | > 100 µM (inactive)
COC(=O)[C@@]12CCCC(=O)[C@@H]1[C@H]1CCCC[C@H]12 | > 100 µM (inactive) | > 100 µM (inactive) | > 100 µM (inactive) | > 100 µM (inactive) | > 100 µM (inactive) | > 100 µM (inactive) | > 100 µM (inactive) | > 100 µM (inactive) | > 100 µM (inactive) | > 100 µM (inactive) | > 100 µM (inactive) | > 100 µM (inactive) | 59.2 µM (inactive) | > 100 µM (inactive) | > 100 µM (inactive) | > 100 µM (inactive) | – | 32.1 µM (inactive) | > 100 µM (inactive) | > 100 µM (inactive)
CCCCCCCC(=O)OC(CBr)COC(=O)C(C)(C)C (centres undefined) | – | 22.1 µM (inactive) | 12.1 µM (inactive) | > 100 µM (inactive) | > 100 µM (inactive) | > 100 µM (inactive) | > 100 µM (inactive) | – | > 100 µM (inactive) | > 100 µM (inactive) | > 68.2 µM (inactive) | > 100 µM (inactive) | 33 µM (inactive) | > 88.5 µM (inactive) | > 100 µM (inactive) | > 100 µM (inactive) | – | > 95.5 µM (inactive) | > 100 µM (inactive) | > 100 µM (inactive)
O=C(Cn1cc(-c2ccccc2)nn1)NC1CCCCC1 | > 100 µM (inactive) | > 100 µM (inactive) | > 100 µM (inactive) | > 100 µM (inactive) | > 100 µM (inactive) | > 100 µM (inactive) | > 100 µM (inactive) | > 100 µM (inactive) | – | 54.5 µM (inactive) | – | > 100 µM (inactive) | > 100 µM (inactive) | > 100 µM (inactive) | > 100 µM (inactive) | > 100 µM (inactive) | – | > 100 µM (inactive) | – | > 100 µM (inactive)
O=C1C=C(Br)C(=O)C(Br)=C1 | – | 31.8 µM (inactive) | > 100 µM (inactive) | 59.7 µM (inactive) | > 100 µM (inactive) | 67.5 µM (inactive) | > 100 µM (inactive) | – | > 100 µM (inactive) | 74 µM (inactive) | > 62.2 µM (inactive) | > 85.5 µM (inactive) | > 50.1 µM (inactive) | > 100 µM (inactive) | > 100 µM (inactive) | > 100 µM (inactive) | – | > 100 µM (inactive) | > 100 µM (inactive) | > 100 µM (inactive)
Cc1ccc(C(=O)Nc2ccc(CP(=O)(O)O)cc2)cc1NC(=O)Nc1cc(C(=O)Nc2ccc(CP(=O)(O)O)cc2)ccc1C | > 100 µM (inactive) | – | > 100 µM (inactive) | > 100 µM (inactive) | > 100 µM (inactive) | > 100 µM (inactive) | > 100 µM (inactive) | > 100 µM (inactive) | > 100 µM (inactive) | > 100 µM (inactive) | > 100 µM (inactive) | – | > 100 µM (inactive) | > 100 µM (inactive) | > 100 µM (inactive) | > 100 µM (inactive) | > 100 µM (inactive) | – | > 100 µM (inactive) | > 100 µM (inactive)

Reference: ChEMBL document CHEMBL1201862, “PubChem BioAssay data set” (2004)
